Assay results as given in patent publication US20110224135A1 (priority 2008, published 2011).

Columns and labels:
[1] = rat, in vivo
[2] = molecular target: T1, human Kv1.7 channel (human), Q96RP8; test: cell-based or functional assay
T1 chain: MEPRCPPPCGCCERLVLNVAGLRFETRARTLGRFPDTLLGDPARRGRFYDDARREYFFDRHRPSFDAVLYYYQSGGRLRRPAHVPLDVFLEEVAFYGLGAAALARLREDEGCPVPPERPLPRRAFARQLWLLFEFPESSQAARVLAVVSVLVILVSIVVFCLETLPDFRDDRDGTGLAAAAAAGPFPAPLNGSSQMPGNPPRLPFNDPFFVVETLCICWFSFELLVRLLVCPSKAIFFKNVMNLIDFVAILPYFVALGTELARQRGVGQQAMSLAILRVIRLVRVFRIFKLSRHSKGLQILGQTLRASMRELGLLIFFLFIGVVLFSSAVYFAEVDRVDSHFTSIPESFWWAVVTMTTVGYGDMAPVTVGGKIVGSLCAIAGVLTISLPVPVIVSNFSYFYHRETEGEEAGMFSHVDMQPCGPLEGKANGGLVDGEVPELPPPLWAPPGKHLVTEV

[3] = molecular target: T2, mouse Kv1.7 channel (mouse), Q17ST2; test: cell-based or functional assay
T2 chain: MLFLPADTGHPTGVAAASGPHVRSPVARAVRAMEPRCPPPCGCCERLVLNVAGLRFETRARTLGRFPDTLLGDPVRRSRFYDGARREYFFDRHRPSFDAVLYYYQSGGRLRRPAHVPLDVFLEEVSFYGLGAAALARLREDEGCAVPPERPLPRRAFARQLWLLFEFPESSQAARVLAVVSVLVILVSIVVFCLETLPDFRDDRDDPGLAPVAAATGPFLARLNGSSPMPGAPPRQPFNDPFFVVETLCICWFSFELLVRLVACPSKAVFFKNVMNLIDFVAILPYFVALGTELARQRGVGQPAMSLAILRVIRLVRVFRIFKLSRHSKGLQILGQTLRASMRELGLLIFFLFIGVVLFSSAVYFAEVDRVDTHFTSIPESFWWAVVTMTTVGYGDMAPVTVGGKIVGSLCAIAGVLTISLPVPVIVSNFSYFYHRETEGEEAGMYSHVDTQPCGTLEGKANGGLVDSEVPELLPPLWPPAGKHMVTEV

COc1ccc(Cl)cc1C(=O)NCCc1ccc(S(=O)(=O)NC(=O)NC2CCCCC2)cc1 [glibenclamide]
AUC calculated from the glucose profiles [1]: 79 ± 7 g·min/L
AUC of the insulin profiles [1]: 310 ± 35 ng·min/mL
Glucose-induced blood glucose increase [1]: reduction of the glucose-induced glucose increase

B1: Conkunitzin-S1 (peptide)
chain: KDRPSLCDLPADSGSGTKAEKRIYYNSARKQCLRFDYTGQGGNENNFRRTYDCQRTCLYT
modifications: not checked
IC50 of block of channel currents (HEK-293 cells) [2]: 445 nM
IC50 of block of channel currents (two electrode voltage clamp, Xenopus oocytes) [3]: 122 nM
